Source: patent publication US20160137639A1, “TRIAZOLE-ISOXAZOLE COMPOUND AND MEDICAL USE THEREOF” (JAPAN TOBACCO INC., priority 2012, published 2016)
Where two headings read alike, the source gives them in different places.

Assays:
[1] = biological target: T1, mouse RORγ (Mus musculus, UniProt P51450); test: Luciferase reporter gene assay of inhibitory effect against RORγ transcriptional activity (GAL4-mRORγ plasmid in CHO cells); assay type: cell-based
T1 construct: mouse, NM_011281.2 and from Ile251 to Lys516; expressed in transfected cells; host or cells: CHO cells (transient co-transfection with pG5-Luc reporter)
T1 sequence (P51450 251-516): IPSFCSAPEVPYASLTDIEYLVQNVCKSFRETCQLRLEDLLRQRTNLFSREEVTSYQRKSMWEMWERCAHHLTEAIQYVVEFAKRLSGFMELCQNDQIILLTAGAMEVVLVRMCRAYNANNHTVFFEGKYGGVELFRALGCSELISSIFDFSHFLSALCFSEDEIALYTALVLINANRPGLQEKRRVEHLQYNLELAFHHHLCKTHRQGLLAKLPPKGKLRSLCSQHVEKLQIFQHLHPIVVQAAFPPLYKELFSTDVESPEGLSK
Summary of the method: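 CHO cells transiently co-transfected with GAL4-mouse RORγ LBD (Ile251–Lys516) and GAL4-dependent luciferase reporter; eight compound concentrations, 0.1% DMSO, 2 days at 37 °C. Luminescence as %-of-vehicle control; EC50 by curve fit, cytotoxic concentrations excluded.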

[2] = biological target: T2, human RORγ (Homo sapiens, UniProt P51449); test: Luciferase reporter gene assay of inhibitory effect against RORγ transcriptional activity (GAL4-hRORγ plasmid in CHO cells); assay type: cell-based
T2 construct: human, NM_005060.3 and from Ser253 to Lys518; expressed in transfected cells; host or cells: CHO cells (transient co-transfection with pG5-Luc reporter)
T2 sequence (P51449 253-518): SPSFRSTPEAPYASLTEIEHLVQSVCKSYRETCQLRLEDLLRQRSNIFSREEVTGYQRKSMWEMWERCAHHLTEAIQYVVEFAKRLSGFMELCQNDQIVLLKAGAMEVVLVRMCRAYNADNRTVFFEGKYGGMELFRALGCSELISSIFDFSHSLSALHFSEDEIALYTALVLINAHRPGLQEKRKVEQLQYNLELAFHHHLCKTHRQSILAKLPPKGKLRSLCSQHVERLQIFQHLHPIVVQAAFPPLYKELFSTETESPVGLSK

SMILES | EC50 ([1]; read-out: LUC EC50 mRORg) | EC50 ([2]; read-out: LUC EC50 hRORg) | EC50 ([1]; read-out: LUC EC50 (μM) mRORg) | EC50 ([2]; read-out: LUC EC50 (μM) hRORg)
Cc1ccc(NC(=O)CCc2noc([C@H]3C[C@@H](CC(C)(C)C)C3)c2C2CC2)c(Cl)c1 [Example F-719] | < 3 µM | < 3 µM |  | 
Cc1ccc(NC(=O)CCc2nnc(CCC(C)C)n2C2CC2)cc1C [Example F-74] |  |  | > 3 µM | > 3 µM
Cc1ccc(NC(=O)CC(CC(=O)N(C)C)c2nnc([C@H]3C[C@@H](CC(C)C)C3)n2C2CC2)c(C)c1 (mixture of isomers) [Example F-500] | < 3 µM | < 3 µM |  | 
CCN(CC)CC(=O)N1C[C@H](C(=O)Nc2ccc(C)cc2C)[C@@H](c2nnc([C@H]3C[C@@H](CC(C)(C)C)C3)n2C2CC2)C1 [Example F-650] | < 3 µM | < 3 µM |  | 
Cc1ccc(NC(=O)C[C@H](CCO)c2nnc(C3CC4(CCC(F)(F)CC4)C3)n2C2CC2)c(C)c1 [Example F-619] | < 3 µM | < 3 µM |  | 
CC(=O)N1CC[C@H](C(=O)Nc2ccc(C)cc2C)[C@H]1c1nnc(CCCC(C)(C)C)n1C1CC1 [Example F-296] |  |  | < 3 µM | < 3 µM
CC1(c2cc(-c3onc([C@@H](CCC(=O)O)CC(=O)Nc4ccc(Cl)cc4F)c3C3CC3)no2)CCCC1 [Example E-71] |  |  | < 3 µM | < 3 µM
Cc1ccc(NC(=O)CCc2noc(C3(CC(=O)O)CC(CC(C)(C)C)C3)c2C2CC2)c(Cl)c1 (mixture of isomers) [Example F-743] | > 3 µM | > 3 µM |  | 
Cc1ccc(NC(=O)C[C@H](CC(N)=O)c2noc([C@H]3C[C@@H](CC(C)C)C3)c2C2CC2)c(C)c1 [Example F-642] | < 3 µM | < 3 µM |  | 
Cc1cc(Cl)ccc1NC(=O)CCc1nnc(CCC(C)C)n1C1CC1 [Example F-138] |  |  | < 3 µM | > 3 µM
Cc1c(Cl)cccc1NC(=O)CCc1nnc(CCCC(C)C)n1C1CC1 [Example F-120] |  |  | < 3 µM | < 3 µM
Cc1cc(F)ccc1NC(=O)CCc1nnc(CCC(C)C)n1C1CC1 [Example F-137] |  |  | < 3 µM | > 3 µM
Cc1ccc(NC(=O)CC(CCN2C(=O)c3ccccc3C2=O)c2nnc(CCCC(C)C)n2C2CC2)c(C)c1 (racemic) [Example F-272] |  |  | < 3 µM | < 3 µM
Cn1c(CCC(=O)Nc2cccc3ccccc23)nnc1C1Cc2ccccc2C1 [Example F-8] |  |  | < 3 µM | > 3 µM
Cc1ccc(NC(=O)C[C@@H](c2nnc([C@H]3C[C@@H](CC(C)C)C3)n2C2CC2)N(C)C)c(C)c1 [Example F-516] | < 3 µM | < 3 µM |  | 
Cc1ccc(NC(=O)CC(CCC(=O)O)c2nnc(CCCC(C)C)n2C2CC2)c(C)c1 (racemic) [Example F-283] |  |  | > 3 µM | > 3 µM
Cc1ccc(NC(=O)CC(CC(=O)N2CC[C@@H](O)C2)c2nnc([C@H]3C[C@@H](CC(C)C)C3)n2C2CC2)c(C)c1 (mixture of isomers) [Example F-502] | > 3 µM | > 3 µM |  | 
Cc1cccc(CCNC(=O)CCc2nnc(CCC(C)C)n2C2CC2)c1 [Example F-68] |  |  | > 3 µM | > 3 µM
Cc1c(NC(=O)C[C@H](CCO)c2nnc(-c3cc(CC(C)C)on3)n2C2CC2)ccc(F)c1F [Example F-662] | < 3 µM | < 3 µM |  | 
Cc1ccc(NC(=O)C[C@H](CCC(=O)O)c2noc(-c3csc(CC(C)C)n3)c2C2CC2)c(Cl)c1 [Example E-36] |  |  | < 3 µM | > 3 µM
CC(=O)N1C[C@@H](C(=O)Nc2ccc(C)cc2C)[C@H](c2nnc(-c3cc(CC(C)C)on3)n2C2CC2)C1 [Example F-409] |  |  | > 3 µM | > 3 µM
O=C(O)CC[C@@H](CC(=O)Nc1ccc(F)cc1Cl)c1noc(-c2cc(C3CCCC3)on2)c1C1CC1 [Example E-60] |  |  | < 3 µM | < 3 µM

SMILES | EC50 ([1]; read-out: LUC EC50 mRORg) | EC50 ([2]; read-out: LUC EC50 hRORg) | EC50 ([1]; read-out: LUC EC50 (μM) mRORg) | EC50 ([2]; read-out: LUC EC50 (μM) hRORg)
Cc1ccc(NC(=O)CC(Cc2cc(O)no2)c2nnc([C@H]3C[C@@H](CC(C)C)C3)n2C2CC2)c(C)c1 (mixture of isomers) [Example F-450] |  |  | < 3 µM | < 3 µM
Cc1ccc(NC(=O)C[C@H](CC(C)C)c2nnc(-c3cc(CC(C)C)no3)n2C2CC2)c(C)c1 [Example F-591] | < 3 µM | < 3 µM |  | 
CCn1c(CCC(=O)Nc2cccc3ccccc23)nnc1CCC1CCCCC1 [Example F-13] |  |  | < 3 µM | < 3 µM
Cc1c(Cl)cccc1NC(=O)CCc1nnc(CCN(C)C(C)(C)C)n1C1CC1 [Example F-294] |  |  | > 3 µM | > 3 µM
COCCC(CC(=O)Nc1ccc(C)cc1C)c1nnc(CCC2CCCCC2)n1C1CC1 (racemic) [Example F-396] |  |  | < 3 µM | < 3 µM
Cc1ccc(NC(=O)C(CC(=O)O)Cc2noc([C@H]3C[C@@H](CC(C)C)C3)c2C2CC2)c(C)c1 (some centres unmarked) [Example F-666] | < 3 µM | > 3 µM |  | 
COCc1ccc(C)c(NC(=O)CCc2nnc(CCC(C)C)n2C2CC2)c1 [Example F-174] |  |  | > 3 µM | > 3 µM
CCc1c(CCC(=O)Nc2cccc3ccccc23)noc1C1Cc2ccccc2C1 [Example F-14] |  |  | < 3 µM | < 3 µM
CCOC(=O)CCc1nnc(CCC(=O)Nc2cccc(Cl)c2C)n1C1CC1 [Example F-183] |  |  | > 3 µM | > 3 µM
CCn1c(CCC(=O)Nc2ccc(C)cc2C)nnc1CCC1CCCC1 [Example F-48] |  |  | < 3 µM | > 3 µM
Cc1ccc(NC(=O)[C@H]2CC(CO)C[C@@H]2c2nnc([C@H]3C[C@@H](CC(C)C)C3)n2C2CC2)c(C)c1 (single isomer, unassigned) [Example F-512] | < 3 µM | < 3 µM |  | 
Cc1ccc(NC(=O)[C@@H](CCC(=O)O)Cc2noc([C@H]3C[C@@H](CC(C)(C)C)C3)c2C2CC2)c(C)c1 [Example F-685] | < 3 µM | < 3 µM |  | 
CC(=O)N1C[C@H](C(=O)Nc2cccc(Cl)c2C)[C@@H](c2nnc(CCC3CCCCC3)n2C2CC2)C1 (racemic) [Example F-155] |  |  | < 3 µM | < 3 µM
CCn1c(CCC(=O)NCc2ccccc2)nnc1CCC1CCCCC1 [Example F-45] |  |  | > 3 µM | > 3 µM
Cc1ccc(NC(=O)C[C@H](CCOCc2ccccc2)c2nnc([C@H]3C[C@@H](CC(C)C)C3)n2C2CC2)c(C)c1 [Example F-456] |  |  | < 3 µM | < 3 µM
CCn1c(CCC2CCCCC2)nnc1[C@H]1CCCC[C@@H]1C(=O)Nc1cccc2ccccc12 (racemic) [Example F-35] |  |  | < 3 µM | < 3 µM
COCC(=O)NC[C@@H](CC(=O)Nc1ccc(C)cc1C)c1nnc([C@H]2C[C@@H](CC(C)C)C2)n1C1CC1 [Example F-487] |  |  | < 3 µM | < 3 µM
CC(=O)N1C[C@@H](C(=O)Nc2ccc(C)cc2C)[C@H](c2nnc(-c3ccc(C(C)C)cc3)n2C2CC2)C1 [Example F-372] |  |  | > 3 µM | > 3 µM
Cc1ccc(NC(=O)[C@H]2CC(=O)C[C@@H]2c2nnc([C@H]3C[C@@H](CC(C)C)C3)n2C2CC2)c(C)c1 (racemic) [Example F-533] | < 3 µM | < 3 µM |  | 
CCn1c(CCCC(C)(C)C)nnc1[C@@H]1[C@@H](C(=O)NCc2ccc(C)cc2OC)CCN1C(C)=O [Example F-370] |  |  | < 3 µM | < 3 µM
Cc1ccc(NC(=O)C[C@H](CCC(=O)O)c2noc(-c3cc(C(F)(F)C(C)(C)C)on3)c2C2CC2)c(F)c1 [Example E-46] |  |  | < 3 µM | < 3 µM
